Laboratory results: ChEMBL document CHEMBL2413072, “Synthesis and in vitro anticancer studies of novel C-2 arylidene congeners of lantadenes” (2013)

Legend:
Format in all cases: functional
[1] = system: SW-620; assay: Growth inhibition of human SW620 cells by sulforhodamine B assay
[2] = system: HT-29; assay: Growth inhibition of human HT-29 cells by sulforhodamine B assay
[3] = system: HCT-15; assay: Growth inhibition of human HCT15 cells by sulforhodamine B assay
[4] = system: A549; assay: Growth inhibition of human A549/ATCC cells by sulforhodamine B assay
[5] = system: HL-60(TB); assay: Growth inhibition of human HL-60(TB) cells by sulforhodamine B assay
[6] = system: OVCAR-3; assay: Growth inhibition of human OVCAR3 cells assessed as cell growth at 10^-8 M by sulforhodamine B assay; conditions: read-out: Activity
[7] = system: SF-268; assay: Growth inhibition of human SF268 cells assessed as cell growth at 10^-8 M by sulforhodamine B assay; conditions: read-out: Activity
[8] = system: HT-29; assay: Growth inhibition of human HT-29 cells assessed as cell growth at 10^-8 M by sulforhodamine B assay; conditions: read-out: Activity
[9] = system: NCI-H226; assay: Growth inhibition of human NCI-H226 cells assessed as cell growth at 10^-8 M by sulforhodamine B assay; conditions: read-out: Activity
[10] = system: HOP-62; assay: Growth inhibition of human HOP62 cells assessed as cell growth at 10^-8 M by sulforhodamine B assay; conditions: read-out: Activity
[11] = system: MDA-MB-468; assay: Growth inhibition of human MDA-MB-468 cells by sulforhodamine B assay
[12] = system: T47D; assay: Growth inhibition of human T47D cells by sulforhodamine B assay
[13] = system: MCF7; assay: Growth inhibition of human MCF7 cells by sulforhodamine B assay
[14] = system: SK-OV-3; assay: Growth inhibition of human SKOV3 cells by sulforhodamine B assay
[15] = system: MDA-MB-435; assay: Growth inhibition of human MDA-MB-435 cells by sulforhodamine B assay
[16] = system: BT-549; assay: Growth inhibition of human BT549 cells assessed as cell growth at 10^-4 M by sulforhodamine B assay; conditions: read-out: Activity
[17] = system: 786-0; assay: Growth inhibition of human 786-0 cells assessed as cell growth at 10^-4 M by sulforhodamine B assay; conditions: read-out: Activity
[18] = system: UACC-257; assay: Growth inhibition of human UACC257 cells assessed as cell growth at 10^-4 M by sulforhodamine B assay; conditions: read-out: Activity
[19] = system: U-251; assay: Growth inhibition of human U251 cells assessed as cell growth at 10^-4 M by sulforhodamine B assay; conditions: read-out: Activity
[20] = system: COLO 205; assay: Growth inhibition of human COLO205 cells assessed as cell growth at 10^-4 M by sulforhodamine B assay; conditions: read-out: Activity
[21] = system: MOLT-4; assay: Growth inhibition of human MOLT4 cells assessed as cell growth at 10^-4 M by sulforhodamine B assay; conditions: read-out: Activity
[22] = system: HL-60(TB); assay: Growth inhibition of human HL-60(TB) cells assessed as cell growth at 10^-4 M by sulforhodamine B assay; conditions: read-out: Activity
[23] = system: T47D; assay: Growth inhibition of human T47D cells assessed as cell growth at 10^-6 M by sulforhodamine B assay; conditions: read-out: Activity
[24] = system: MDA-MB-231; assay: Growth inhibition of human MDA-MB-231 cells assessed as cell growth at 10^-6 M by sulforhodamine B assay; conditions: read-out: Activity
[25] = system: PC-3; assay: Growth inhibition of human PC3 cells assessed as cell growth at 10^-6 M by sulforhodamine B assay; conditions: read-out: Activity
[26] = system: CAKI-1; assay: Growth inhibition of human CAKI-1 cells assessed as cell growth at 10^-6 M by sulforhodamine B assay; conditions: read-out: Activity
[27] = system: OVCAR-4; assay: Growth inhibition of human OVCAR4 cells assessed as cell growth at 10^-6 M by sulforhodamine B assay; conditions: read-out: Activity
[28] = system: SNB-19; assay: Growth inhibition of human SNB19 cells assessed as cell growth at 10^-6 M by sulforhodamine B assay; conditions: read-out: Activity
[29] = Growth inhibition of human HCC2998 cells assessed as cell growth at 10^-6 M by sulforhodamine B assay; conditions: HCC 2998, read-out: Activity
[30] = system: COLO 205; assay: Growth inhibition of human COLO205 cells assessed as cell growth at 10^-6 M by sulforhodamine B assay; conditions: read-out: Activity
[31] = system: NCI-H522; assay: Growth inhibition of human NCI-H522 cells assessed as cell growth at 10^-6 M by sulforhodamine B assay; conditions: read-out: Activity
[32] = system: NCI-H322M; assay: Growth inhibition of human NCI-H322M cells assessed as cell growth at 10^-6 M by sulforhodamine B assay; conditions: read-out: Activity
[33] = system: 786-0; assay: Growth inhibition of human 786-0 cells assessed as cell growth at 10^-7 M by sulforhodamine B assay; conditions: read-out: Activity
[34] = system: SK-MEL-5; assay: Growth inhibition of human SK-MEL-5 cells assessed as cell growth at 10^-7 M by sulforhodamine B assay; conditions: read-out: Activity
[35] = system: MDA-MB-435; assay: Growth inhibition of human MDA-MB-435 cells assessed as cell growth at 10^-7 M by sulforhodamine B assay; conditions: read-out: Activity
[36] = system: M14; assay: Growth inhibition of human M14 cells assessed as cell growth at 10^-7 M by sulforhodamine B assay; conditions: read-out: Activity
[37] = system: RPMI-8226; assay: Growth inhibition of human RPMI8226 cells assessed as cell growth at 10^-7 M by sulforhodamine B assay; conditions: read-out: Activity
[38] = system: MDA-MB-231; assay: Growth inhibition of human MDA-MB-231 cells assessed as cell growth at 10^-8 M by sulforhodamine B assay; conditions: read-out: Activity
[39] = read-out: LC50 (the source's name)
[40] = read-out: pLC50 (the source's name) (converted)

CC1(C)C[C@@H](O)[C@]2(C(=O)O)CC[C@]3(C)C(=CC[C@@H]4[C@@]5(C)C/C(=C\C=C\c6ccccc6)C(=O)C(C)(C)[C@@H]5CC[C@]43C)[C@@H]2C1
GI50 ([1]; read-out: GI50): 3.39 µM
CC50 [1, 39]: 78.8 µM
TGI ([1]; read-out: TGI): 15.4 µM
GI50 ([1]; read-out: pGI50 (converted)): 3.39 µM
CC50 [1, 40]: 79.4 µM
TGI ([1]; read-out: pTGI (converted)): 15.5 µM
GI50 ([2]; read-out: GI50): 2680 nM
LC50 (50% cell kill) ([2]; read-out: LC50): 32.9 µM
TGI ([2]; read-out: TGI): 7.37 µM
GI50 ([2]; read-out: pGI50 (converted)): 2690 nM
LC50 (50% cell kill) ([2]; read-out: pLC50 (converted)): 33.1 µM
TGI ([2]; read-out: pTGI (converted)): 7.41 µM
GI50 ([3]; read-out: GI50): 3.22 µM
LC50 (50% lethal concentration) ([3]; read-out: LC50): 45.1 µM
TGI ([3]; read-out: TGI): 11.9 µM
GI50 ([3]; read-out: pGI50 (converted)): 3.24 µM
LC50 (50% lethal concentration) ([3]; read-out: pLC50 (converted)): 44.7 µM
TGI ([3]; read-out: pTGI (converted)): 12 µM
GI50 ([4]; read-out: GI50): 2800 nM
CC50 [4, 39]: 63.4 µM
TGI ([4]; read-out: TGI): 11.2 µM
GI50 ([4]; read-out: pGI50 (converted)): 2820 nM
CC50 [4, 40]: 63.1 µM
TGI ([4]; read-out: pTGI (converted)): 11.2 µM
GI50 ([5]; read-out: GI50): 2920 nM
CC50 [5, 39]: > 100 µM
TGI ([5]; read-out: TGI): 6.89 µM
GI50 ([5]; read-out: pGI50 (converted)): 2880 nM
CC50 [5, 40]: > 100 µM
TGI ([5]; read-out: pTGI (converted)): 6.92 µM
growth at 0.01 µM [6]: 102%
growth at 0.01 µM [7]: 93%
growth at 0.01 µM [8]: 104%
growth at 0.01 µM [9]: 97%
growth at 0.01 µM [10]: 93%
GI50 ([11]; read-out: GI50): 3.3 µM
CC50 [11, 39]: > 100 µM
TGI ([11]; read-out: TGI): 12.7 µM
GI50 ([11]; read-out: pGI50 (converted)): 3.31 µM
CC50 [11, 40]: 37.2 µM
TGI ([11]; read-out: pTGI (converted)): 12.6 µM
GI50 ([12]; read-out: GI50): 3.83 µM
CC50 [12, 39]: > 100 µM
TGI ([12]; read-out: TGI): 18.4 µM
GI50 ([12]; read-out: pGI50 (converted)): 3.8 µM
CC50 [12, 40]: > 100 µM
TGI ([12]; read-out: pTGI (converted)): 18.2 µM
GI50 ([13]; read-out: GI50): 3.23 µM
CC50 [13, 39]: 56.9 µM
TGI ([13]; read-out: TGI): 12.3 µM
GI50 ([13]; read-out: pGI50 (converted)): 3.24 µM
CC50 [13, 40]: 57.5 µM
TGI ([13]; read-out: pTGI (converted)): 12.3 µM
GI50 ([14]; read-out: GI50): 3.81 µM
CC50 [14, 39]: 46.4 µM
TGI ([14]; read-out: TGI): 14.8 µM
GI50 ([14]; read-out: pGI50 (converted)): 3.8 µM
CC50 [14, 40]: 46.8 µM
TGI ([14]; read-out: pTGI (converted)): 14.8 µM
GI50 ([15]; read-out: GI50): 3.28 µM
CC50 [15, 39]: > 100 µM
TGI ([15]; read-out: TGI): 14.4 µM
GI50 ([15]; read-out: pGI50 (converted)): 3.31 µM
CC50 [15, 40]: > 100 µM
TGI ([15]; read-out: pTGI (converted)): 14.5 µM
growth at 100 µM [16]: -72%
growth at 100 µM [17]: -85%
growth at 100 µM [18]: -88%
growth at 100 µM [19]: -79%
growth at 100 µM [20]: -61%
growth at 100 µM [21]: -28%
growth at 100 µM [22]: -40%
growth at 1 µM [23]: 97%
growth at 1 µM [24]: 92%
growth at 1 µM [25]: 80%
growth at 1 µM [26]: 92%
growth at 1 µM [27]: 89%
growth at 1 µM [28]: 88%
growth at 1 µM [29]: 108%
growth at 1 µM [30]: 108%
growth at 1 µM [31]: 94%
growth at 1 µM [32]: 94%
growth at 0.1 µM [33]: 100%
growth at 0.1 µM [34]: 95%
growth at 0.1 µM [35]: 96%
growth at 0.1 µM [36]: 95%
growth at 0.1 µM [37]: 99%
growth at 0.01 µM [38]: 108%
